Assay results from ChEMBL document CHEMBL4004838, “Design and synthesis of novel phenyl -1, 4-beta-carboline-hybrid molecules as potential anticancer agents” (Eur J Med Chem, 2017).

Legend:
Assay type in all cases: functional
MOLT-4 [1] = assay: Growth inhibition of human MOLT4 cells incubated for 48 hrs by sulforhodamine B assay; conditions: MOLT-4, 48 h
MDA-MB-231 [2] = assay: Growth inhibition of human MDA-MB-231 cells incubated for 48 hrs by sulforhodamine B assay; conditions: MDA-MB-231, 48 h
COLO 205 = assay: Growth inhibition of human COLO205 cells incubated for 48 hrs by sulforhodamine B assay; conditions: COLO 205, 48 h
SK-OV-3 = assay: Growth inhibition of human SKOV3 cells incubated for 48 hrs by sulforhodamine B assay; conditions: SK-OV-3, 48 h
NCI-H322M = assay: Growth inhibition of human NCI-H322M cells assessed as cell growth at 100 uM incubated for 48 hrs by sulforhodamine B assay relative to control; conditions: read-out: Activity
OVCAR-4 = assay: Growth inhibition of human OVCAR4 cells assessed as cell growth at 0.01 uM incubated for 48 hrs by sulforhodamine B assay relative to control; conditions: OVCAR-4, 48 h, read-out: Activity
HOP-92 [3] = assay: Growth inhibition of human HOP92 cells incubated for 48 hrs by sulforhodamine B assay; conditions: HOP-92, 48 h
HCC 2998 = assay: Growth inhibition of human HCC2998 cells assessed as cell growth at 0.01 uM incubated for 48 hrs by sulforhodamine B assay relative to control; conditions: HCC 2998, 48 h, read-out: Activity
ACHN = assay: Growth inhibition of human ACHN cells assessed as cell growth at 0.1 uM incubated for 48 hrs by sulforhodamine B assay relative to control; conditions: read-out: Activity
NCI/ADR-RES = assay: Growth inhibition of human NCI-ADR-RES cells incubated for 48 hrs by sulforhodamine B assay
MDA-MB-468 [4] = assay: Growth inhibition of human MDA-MB-468 cells assessed as cell growth at 0.01 uM incubated for 48 hrs by sulforhodamine B assay relative to control; conditions: MDA-MB-468, 48 h, read-out: Activity
UACC-62 = assay: Growth inhibition of human UACC62 cells assessed as cell growth at 1 uM incubated for 48 hrs by sulforhodamine B assay relative to control; conditions: UACC-62, 48 h, read-out: Activity
HT-29 = assay: Growth inhibition of human HT-29 cells incubated for 48 hrs by sulforhodamine B assay; conditions: HT-29, 48 h
SK-MEL-28 [5] = assay: Growth inhibition of human SK-MEL-28 cells assessed as cell growth at 100 uM incubated for 48 hrs by sulforhodamine B assay relative to control; conditions: SK-MEL-28, 48 h, read-out: Activity
DU-145 = assay: Growth inhibition of human DU145 cells assessed as cell growth at 0.01 uM incubated for 48 hrs by sulforhodamine B assay relative to control; conditions: DU-145, 48 h, read-out: Activity
MOLT-4 [6] = assay: Growth inhibition of human MOLT4 cells assessed as cell growth at 0.1 uM incubated for 48 hrs by sulforhodamine B assay relative to control; conditions: MOLT-4, 48 h, read-out: Activity
UACC-257 [7] = assay: Growth inhibition of human UACC257 cells assessed as cell growth at 0.1 uM incubated for 48 hrs by sulforhodamine B assay relative to control; conditions: UACC-257, 48 h, read-out: Activity
UACC-257 [8] = assay: Growth inhibition of human UACC257 cells assessed as cell growth at 0.01 uM incubated for 48 hrs by sulforhodamine B assay relative to control; conditions: UACC-257, 48 h, read-out: Activity
PC-3 = assay: Growth inhibition of human PC3 cells assessed as cell growth at 1 uM incubated for 48 hrs by sulforhodamine B assay relative to control; conditions: PC-3, 48 h, read-out: Activity
MOLT-4 [9] = assay: Growth inhibition of human MOLT4 cells assessed as cell growth at 1 uM incubated for 48 hrs by sulforhodamine B assay relative to control; conditions: MOLT-4, 48 h, read-out: Activity
MDA-MB-231 [10] = assay: Growth inhibition of human MDA-MB-231 cells assessed as cell growth at 100 uM incubated for 48 hrs by sulforhodamine B assay relative to control; conditions: MDA-MB-231, 48 h, read-out: Activity
SNB-75 = assay: Growth inhibition of human SNB75 cells assessed as cell growth at 0.01 uM incubated for 48 hrs by sulforhodamine B assay relative to control; conditions: SNB-75, 48 h, read-out: Activity
MDA-MB-468 [11] = assay: Growth inhibition of human MDA-MB-468 cells incubated for 48 hrs by sulforhodamine B assay; conditions: MDA-MB-468, 48 h
KM12 = assay: Growth inhibition of human KM12 cells assessed as cell growth at 100 uM incubated for 48 hrs by sulforhodamine B assay relative to control; conditions: KM12, 48 h, read-out: Activity
NCI-H226 = assay: Growth inhibition of human NCI-H226 cells assessed as cell growth at 0.01 uM incubated for 48 hrs by sulforhodamine B assay relative to control; conditions: NCI-H226, 48 h, read-out: Activity
HOP-92 [12] = assay: Growth inhibition of human HOP92 cells assessed as cell growth at 0.01 uM incubated for 48 hrs by sulforhodamine B assay relative to control; conditions: HOP-92, 48 h, read-out: Activity
SK-MEL-28 [13] = assay: Growth inhibition of human SK-MEL-28 cells assessed as cell growth at 0.1 uM incubated for 48 hrs by sulforhodamine B assay relative to control; conditions: SK-MEL-28, 48 h, read-out: Activity
SF-268 = assay: Growth inhibition of human SF268 cells assessed as cell growth at 1 uM incubated for 48 hrs by sulforhodamine B assay relative to control; conditions: SF-268, 48 h, read-out: Activity
786-0 = assay: Growth inhibition of human 786-0 cells assessed as cell growth at 0.01 uM incubated for 48 hrs by sulforhodamine B assay relative to control; conditions: 786-0, 48 h, read-out: Activity
[14] = read-out: LC50 (the source's name)
[15] = read-out: pLC50 (the source's name) (converted)

SMILES: c1ccc2c3c([nH]c2c1)C(c1ccc(C2NCCc4c2[nH]c2ccccc42)cc1)NCC3 (racemic)
- CC50 (MOLT-4 [1]; [14]): 8030 nM
- GI50 (MOLT-4 [1]; read-out: pGI50 (converted)): 380 nM
- CC50 (MOLT-4 [1]; [15]): 7940 nM
- TGI (MOLT-4 [1]; read-out: pTGI (converted)): 1550 nM
- GI50 (MDA-MB-231 [2]; read-out: GI50): 2960 nM
- CC50 (MDA-MB-231 [2]; [14]): 3640 nM
- TGI (MDA-MB-231 [2]; read-out: TGI): 9360 nM
- GI50 (MDA-MB-231 [2]; read-out: pGI50 (converted)): 295 nM
- CC50 (MDA-MB-231 [2]; [15]): 3630 nM
- GI50 (COLO 205; read-out: GI50): 2040 nM
- CC50 (COLO 205; [14]): 1200 nM
- TGI (COLO 205; read-out: TGI): 4590 nM
- GI50 (COLO 205; read-out: pGI50 (converted)): 204 nM
- CC50 (COLO 205; [15]): 1200 nM
- TGI (COLO 205; read-out: pTGI (converted)): 457 nM
- GI50 (SK-OV-3; read-out: GI50): 1880 nM
- CC50 (SK-OV-3; [14]): 9120 nM
- TGI (SK-OV-3; read-out: TGI): 4140 nM
- GI50 (SK-OV-3; read-out: pGI50 (converted)): 1860 nM
- CC50 (SK-OV-3; [15]): 9120 nM
- TGI (SK-OV-3; read-out: pTGI (converted)): 4170 nM
- growth at 100 µM (NCI-H322M): 96%
- growth at 0.01 µM (OVCAR-4): 88%
- CC50 (HOP-92 [3]; [14]): 9590 nM
- GI50 (HOP-92 [3]; read-out: pGI50 (converted)): 724 nM
- CC50 (HOP-92 [3]; [15]): 9550 nM
- TGI (HOP-92 [3]; read-out: pTGI (converted)): 2880 nM
- growth at 0.01 µM (HCC 2998): 91%
- growth at 0.1 µM (ACHN): 97%
- GI50 (NCI/ADR-RES; read-out: GI50): 2100 nM
- CC50 (NCI/ADR-RES; [14]): > 1000 nM
- TGI (NCI/ADR-RES; read-out: TGI): 7810 nM
- GI50 (NCI/ADR-RES; read-out: pGI50 (converted)): 2090 nM
- CC50 (NCI/ADR-RES; read-out: pLC50 (converted)): > 100000 nM
- TGI (NCI/ADR-RES; read-out: pTGI (converted)): 7760 nM
- growth at 0.01 µM (MDA-MB-468 [4]): 95%
- growth at 1 µM (UACC-62): 43%
- GI50 (HT-29; read-out: GI50): 2800 nM
- CC50 (HT-29; [14]): 3920 nM
- TGI (HT-29; read-out: TGI): 7350 nM
- GI50 (HT-29; read-out: pGI50 (converted)): 282 nM
- CC50 (HT-29; [15]): 3890 nM
- TGI (HT-29; read-out: pTGI (converted)): 741 nM
- growth at 100 µM (SK-MEL-28 [5]): 93%
- growth at 0.01 µM (DU-145): 100%
- growth at 0.1 µM (MOLT-4 [6]): 101%
- growth at 0.1 µM (UACC-257 [7]): 104%
- growth at 0.01 µM (UACC-257 [8]): 101%
- growth at 1 µM (PC-3): 66%
- growth at 1 µM (MOLT-4 [9]): 13%
- growth at 100 µM (MDA-MB-231 [10]): -92%
- growth at 0.01 µM (SNB-75): 78%
- CC50 (MDA-MB-468 [11]; [14]): 5010 nM
- GI50 (MDA-MB-468 [11]; read-out: pGI50 (converted)): 363 nM
- CC50 (MDA-MB-468 [11]; [15]): 5010 nM
- TGI (MDA-MB-468 [11]; read-out: pTGI (converted)): 1350 nM
- growth at 100 µM (KM12): 88%
- growth at 0.01 µM (NCI-H226): 97%
- growth at 0.01 µM (HOP-92 [12]): 86%
- growth at 0.1 µM (SK-MEL-28 [13]): 96%
- growth at 1 µM (SF-268): 57%
- growth at 0.01 µM (786-0): 96%
